Assay results: patent US20240158392A1 (Janssen Biotech, Inc., priority 2021, published 2024)
Where two headings read alike, the source gives them in different places.

Molecular target: SIK2 (Homo sapiens, UniProt Q9H0K1)
Assay: SIK2 Enzymatic Assay High Version 2 (High ATP)
Type: biochemical
Outline: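 At room temperature, enzyme (6 nM, 2× final) was preincubated with compound for 30 min, then 6 mM ATP and 400 μM HDAC5tide (both 2× final) were added for 2 h. ADP formed was measured by ADP-Glo Max (2 h reagent, 1 h detection) using luminescence.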

[1] = enzyme 6 nM, 6 mM ATP and 400 μM HDAC5tide (each 2× final concentration), 30 minutes pre-incubation, 2 hours, ADP-Glo Max luminescence, read-out: SIK2 high ATP IC50 (μM) (Test Example 2)

Chain of SIK2 (Q9H0K1 whole entry, species assumed): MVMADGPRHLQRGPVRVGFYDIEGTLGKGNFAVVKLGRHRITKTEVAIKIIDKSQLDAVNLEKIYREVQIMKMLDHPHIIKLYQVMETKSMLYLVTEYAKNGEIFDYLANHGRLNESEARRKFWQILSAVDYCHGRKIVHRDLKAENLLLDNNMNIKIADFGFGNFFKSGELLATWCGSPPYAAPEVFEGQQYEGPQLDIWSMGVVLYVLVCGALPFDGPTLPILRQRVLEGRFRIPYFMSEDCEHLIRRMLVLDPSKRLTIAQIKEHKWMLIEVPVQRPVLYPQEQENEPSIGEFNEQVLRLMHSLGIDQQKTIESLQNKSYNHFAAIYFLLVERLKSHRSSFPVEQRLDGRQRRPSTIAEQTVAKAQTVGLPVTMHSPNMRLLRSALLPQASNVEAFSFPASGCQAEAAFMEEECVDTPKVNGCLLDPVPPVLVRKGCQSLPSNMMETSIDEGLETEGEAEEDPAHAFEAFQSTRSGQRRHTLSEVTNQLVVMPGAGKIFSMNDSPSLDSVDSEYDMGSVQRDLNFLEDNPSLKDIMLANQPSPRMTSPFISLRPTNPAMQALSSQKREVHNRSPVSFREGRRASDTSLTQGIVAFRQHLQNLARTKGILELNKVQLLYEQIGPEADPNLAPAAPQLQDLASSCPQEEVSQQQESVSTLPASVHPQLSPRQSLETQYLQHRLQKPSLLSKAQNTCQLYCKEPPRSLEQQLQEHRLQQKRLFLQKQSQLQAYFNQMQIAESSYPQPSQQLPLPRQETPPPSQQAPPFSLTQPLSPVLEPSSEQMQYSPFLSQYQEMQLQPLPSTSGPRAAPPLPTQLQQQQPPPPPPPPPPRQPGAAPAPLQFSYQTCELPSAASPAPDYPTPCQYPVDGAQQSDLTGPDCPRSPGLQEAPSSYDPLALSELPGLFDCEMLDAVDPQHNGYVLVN

| Compound | IC50 [1] | IC50 |
| --- | --- | --- |
| Cc1cc(-c2ccn3nc(Nc4ccc(C5CC5)nn4)cc3c2)c(O[C@@H]2[C@@H]3CO[C@H]2CN3)cn1 [Example 525, N-(6-cyclopropylpyridazin-3-yl)-5-[2-methyl-5-[[(1S,4S,7R)-2-oxa-5-azabicyclo[2.2.1]heptan-7-yl]oxy]-4-pyridyl]pyrazolo[1,5-a]pyridin-2-amine] |  | 0.0594 µM |
| Cc1cc(Nc2cc3cc(-c4cc(C)ncc4O[C@H]4C[C@H]5COC[C@@H](C4)N5)ccn3n2)ncn1 [Example 396, 5-[2-methyl-5-[[(1R,5S,7s)-3-oxa-9-azabicyclo[3.3.1]nonan-7-yl]oxy]-4-pyridyl]-N-(6-methylpyrimidin-4-yl)pyrazolo[1,5-a]pyridin-2-amine] |  | 0.0011 µM |
| Cc1cc(-c2ccn3nc(Nc4ccc(C(=O)NCC(C)(C)C#N)cn4)cc3c2)c(O[C@H]2C[C@H]3COC[C@@H](C2)N3)cn1 [Example 389, N-(2-cyano-2-methyl-propyl)-6-[[5-[2-methyl-5-[[(1S,5R,7s)-3-oxa-9-azabicyclo[3.3.1]nonan-7-yl]oxy]-4-pyridyl]pyrazolo[1,5-a]pyridin-2-yl]amino]pyridine-3-carboxamide] |  | 0.00102 µM |
| Cc1cc(-c2ccn3nc(NC(=O)C4CC4)cc3c2)c(OC[C@]2(C#N)CCNC2)cn1 (single isomer, unassigned) [Example 211, (*R)—N-[5-[5-[[(3R)-3-cyanopyrrolidin-3-yl]methoxy]-2-methyl-4-pyridyl]pyrazolo[1,5-a]pyridin-2-yl]cyclopropanecarboxamide] | 0.013 µM |  |
| Cc1cc(Nc2cc3cc(-c4cc(Cl)ncc4OC[C@]45CN[C@H](CO4)C5)ccn3n2)nc(C)n1 [Example 303, 5-[2-chloro-5-[[(1S,4S)-5-oxa-2-azabicyclo[2.2.1]heptan-4-yl]methoxy]-4-pyridyl]-N-(2,6-dimethylpyrimidin-4-yl)pyrazolo[1,5-a]pyridin-2-amine] | 0.000971 µM |  |
| Cc1cc(-c2ccn3nc(Nc4cccnn4)cc3c2)c(O[C@H]2C[C@H]3CC[C@@H](C2)N3C)cn1 [Example 514, 5-[2-methyl-5-[[(1S,5R)-8-methyl-8-azabicyclo[3.2.1]octan-3-yl]oxy]-4-pyridyl]-N-pyridazin-3-yl-pyrazolo[1,5-a]pyridin-2-amine] |  | 0.0303 µM |
| Cc1cc(-c2ccn3nc(Nc4cc(C)c(C(=O)NC5CC5)c(C)c4)cc3c2)c(OCC(C)(C)O)cn1 [Example 326, N-cyclopropyl-4-[[5-[5-(2-hydroxy-2-methyl-propoxy)-2-methyl-4-pyridyl]pyrazolo[1,5-a]pyridin-2-yl]amino]-2,6-dimethyl-benzamide] | 0.0362 µM |  |
| Cc1cc(-c2ccn3nc(NC(=O)C4CC4)cc3c2)c(OC[C@@]2(C#N)CCN(C)C2)cn1 (single isomer, unassigned) [Example 212, (*S)—N-[5-[5-[(3-cyano-1-methyl-pyrrolidin-3-yl)methoxy]-2-methyl-4-pyridyl]pyrazolo[1,5-a]pyridin-2-yl]cyclopropanecarboxamide] | 0.0472 µM |  |
| CCNC(=O)c1cnc(Nc2cc3cc(-c4cc(C)ncc4O[C@H]4C[C@H]5COC[C@@H](C4)N5)ccn3n2)cn1 [Example 386, N-ethyl-5-[[5-[2-methyl-5-[[(1S,5R,7s)-3-oxa-9-azabicyclo[3.3.1]nonan-7-yl]oxy]-4-pyridyl]pyrazolo[1,5-a]pyridin-2-yl]amino]pyrazine-2-carboxamide] |  | 0.00131 µM |
| Cc1cc(-c2ccn3nc(Nc4cc(C)nc(C)n4)cc3c2)c(OCC2CNS(=O)(=O)N2)cn1 (racemic) [Example 352, (rac-)-N-(2,6-dimethylpyrimidin-4-yl)-5-[5-[(1,1-dioxo-1,2,5-thiadiazolidin-3-yl)methoxy]-2-methyl-4-pyridyl]pyrazolo[1,5-a]pyridin-2-amine] |  | 0.0031 µM |
| Cc1cc(-c2ccn3nc(NC(=O)C4CC4)cc3c2)c(OC2CCC(=O)CC2)cn1 [Example 186, N-[5-[2-methyl-5-(4-oxocyclohexoxy)-4-pyridyl]pyrazolo[1,5-a]pyridin-2-yl]cyclopropanecarboxamide] | 0.0164 µM |  |
| Cc1cc(-c2ccn3nc(Nc4cnc(C(=O)NCC(C)(C)O)cn4)cc3c2)c(O[C@H]2C[C@H]3COC[C@@H](C2)N3)cn1 [Example 390, N-(2-hydroxy-2-methyl-propyl)-5-[[5-[2-methyl-5-[[(1S,5R,7s)-3-oxa-9-azabicyclo[3.3.1]nonan-7-yl]oxy]-4-pyridyl]pyrazolo[1,5-a]pyridin-2-yl]amino]pyrazine-2-carboxamide] |  | > 50 µM |
| Cc1cc(-c2ccn3nc(Nc4ccncn4)cc3c2)c(OC[C@@H]2CNCCO2)cn1 [Example 132, 5-[2-methyl-5-[[(2S)-morpholin-2-yl]methoxy]-4-pyridyl]-N-pyrimidin-4-yl-pyrazolo[1,5-a]pyridin-2-amine] | 0.00951 µM |  |
| CCN1[C@@H]2COC[C@H]1C[C@@H](Oc1cnc(C)cc1-c1ccn3nc(NC(=O)C4CC4)cc3c1)C2 [Example 161, 7-endo-N-(5-(5-(((1R,5S,7s)-9-ethyl-3-oxa-9-azabicyclo[3.3.1]nonan-7-yl)oxy)-2-methylpyridin-4-yl)pyrazolo[1,5-a]pyridin-2-yl)cyclopropanecarboxamide] |  | < 0.000847 µM |
| Cc1cc(-c2ccn3nc(Nc4cc(C)nc(C)n4)cc3c2)c(O[C@@H]2CCS(=O)(=O)C2)cn1 [Example 344, N-(2,6-dimethylpyrimidin-4-yl)-5-[5-[(3R)-1,1-dioxothiolan-3-yl]oxy-2-methyl-4-pyridyl]pyrazolo[1,5-a]pyridin-2-amine] | 0.00362 µM |  |

More lines, main results first:

| IC50 [1] | Compound | IC50 |
| --- | --- | --- |
| 0.0471 µM | Cc1cnc(Nc2cc3cc(-c4cc(C)ncc4OCC(C)(C)O)ccn3n2)cn1 [Example 541, 2-methyl-1-[[6-methyl-4-[2-[(5-methylpyrazin-2-yl)amino]pyrazolo[1,5-a]pyridin-5-yl]-3-pyridyl]oxy]propan-2-ol] |  |
| 0.105 µM | Cc1cc(-c2ccn3nc(Nc4cc(C(=O)N(C)C)cc(C)n4)cc3c2)c(OCC(C)(C)O)cn1 [Example 633, 2-[[5-[5-(2-hydroxy-2-methyl-propoxy)-2-methyl-4-pyridyl]pyrazolo[1,5-a]pyridin-2-yl]amino]-N,N,6-trimethyl-pyridine-4-carboxamide] |  |
| 0.0154 µM | Cc1cc(Nc2cc3cc(-c4cc(OCC(F)F)ncc4OCC(C)(C)C#N)ccn3n2)nn(C2CC2)c1=O [Example 730, 3-[[4-[2-[(1-cyclopropyl-5-methyl-6-oxo-pyridazin-3-yl)amino]pyrazolo[1,5-a]pyridin-5-yl]-6-(2,2-difluoroethoxy)-3-pyridyl]oxy]-2,2-dimethyl-propanenitrile] |  |
| 0.000935 µM | Cc1cc(Nc2cc3cc(-c4cc(OC(F)F)ncc4O[C@H]4CC[C@H](O)CC4)ccn3n2)nc(C)n1 [Example 677, (1r,4r)-4-[[6-(difluoromethoxy)-4-[2-[(2,6-dimethylpyrimidin-4-yl)amino]pyrazolo[1,5-a]pyridin-5-yl]-3-pyridyl]oxy]cyclohexanol] |  |
| 0.117 µM | CC(C)(C#N)COc1cnc(OC(F)F)cc1-c1ccn2nc(Nc3ccc(CN4CCOCC4)cn3)cc2c1 [Example 695, 3-[[6-(difluoromethoxy)-4-[2-[[5-(morpholinomethyl)-2-pyridyl]amino]pyrazolo[1,5-a]pyridin-5-yl]-3-pyridyl]oxy]-2,2-dimethyl-propanenitrile] |  |
| 0.557 µM | Cc1cc(-c2ccn3nc(Nc4nccc(C)c4F)cc3c2)c(OCC(C)(C)O)cn1 [Example 652, 1-[[4-[2-[(3-fluoro-4-methyl-2-pyridyl)amino]pyrazolo[1,5-a]pyridin-5-yl]-6-methyl-3-pyridyl]oxy]-2-methyl-propan-2-ol] |  |
| 0.0298 µM | Cc1cc(-c2ccn3nc(NC(=O)C4CC4)cc3c2)c(OCC2CN(CCF)C2)cn1 [Example 457, N-[5-[5-[[1-(2-fluoroethyl)azetidin-3-yl]methoxy]-2-methyl-4-pyridyl]pyrazolo[1,5-a]pyridin-2-yl]cyclopropanecarboxamide] |  |
| 0.071 µM | Cc1cc(Nc2cc3cc(-c4cc(OC(F)(F)F)ccc4OCC(C)(C)C#N)ccn3n2)nc(C)n1 [Example 754, 3-[2-[2-[(2,6-dimethylpyrimidin-4-yl)amino]pyrazolo[1,5-a]pyridin-5-yl]-4-(trifluoromethoxy)phenoxy]-2,2-dimethyl-propanenitrile] |  |
| 0.0614 µM | Cc1cc(-c2ccn3nc(NC(=O)C4CC4)cc3c2)c(O[C@H]2CNC2(C)C)cn1 [Example 510, N-[5-[5-[(3S)-2,2-dimethylazetidin-3-yl]oxy-2-methyl-4-pyridyl]pyrazolo[1,5-a]pyridin-2-yl]cyclopropanecarboxamide] |  |
| 0.0416 µM | Cc1cc(-c2ccn3nc(Nc4cc(C)nc(C)n4)cc3c2)c(OC[C@@H](O)C2(C)CC2)cn1 (single isomer, unassigned) [Example 549, (*S)-2-[[4-[2-[(2,6-dimethylpyrimidin-4-yl)amino]pyrazolo[1,5-a]pyridin-5-yl]-6-methyl-3-pyridyl]oxy]-1-(1-methylcyclopropyl)ethanol] |  |
| 0.00302 µM | Cc1cnc(Nc2cc3cc(-c4cc(OC(F)F)ncc4OCC(C)(C)C#N)ccn3n2)cn1 [Example 709, 3-[[6-(difluoromethoxy)-4-[2-[(5-methylpyrazin-2-yl)amino]pyrazolo[1,5-a]pyridin-5-yl]-3-pyridyl]oxy]-2,2-dimethyl-propanenitrile] |  |
| < 0.000847 µM | CC#Cc1cc(-c2ccn3nc(NC(=O)C4CC4)cc3c2)c(OCC2(N)COC2)cn1 [Example 433, N-[5-[5-[(3-aminooxetan-3-yl)methoxy]-2-prop-1-ynyl-4-pyridyl]pyrazolo[1,5-a]pyridin-2-yl]cyclopropanecarboxamide] |  |
| 0.00681 µM | Cc1cc(-c2ccn3nc(Nc4cc(C)nc(C)n4)cc3c2)c(O[C@H]2CCS(=O)(=O)N(C)C2)cn1 (single isomer, unassigned) [Example 355, (*S)—N-(2,6-dimethylpyrimidin-4-yl)-5-[2-methyl-5-(2-methyl-1,1-dioxo-thiazinan-4-yl)oxy-4-pyridyl]pyrazolo[1,5-a]pyridin-2-amine] |  |
